Experiments:
[1] = tested on: complex I; experiment: Complex I activity in mouse kidney mitochondrial lysate; conditions: mitochondrial lysates treated with a bolus of IsoLG
Experimental: (C) Mouse kidney mitochondrial lysate was acutely treated with DMSO (Control), ethanolamine, spermine, L-lysine, IsoLG (1.5 μM) or IsoLG modified-ethanolamine (IsoLG-ETN, 1.5 μM), -spermine (IsoLG-Sper, 1.5 μM), L-lysine (IsoLG-Lys, 1.5 μM), -phosphatidylethanolamine (IsoLG-PE, 1.5 μM) prior to measurements of complex I activity expressed as a % of Control (100%).
OXPHOS specific enzyme activities in submitochondrial particles (SMP) were measured using a Varian Cary 300 Bio UV/Vis spectrophotometer with temperature controlling cell holder. Briefly, SMP were prepared by sonication of isolated organelles. Complex I activity was monitored in triplicate samples as the reduction of 10 μM decylubiquinone at 272 nm by 15 μg of mitochondrial protein with 40 μM NADH.
To test this hypothesis, the present inventors studied the activity of complex I and complex II in mitochondrial lysates treated with a bolus of IsoLG.

[2] = tested on: Intact mouse kidney mitochondria, complex I-mediated respiration; experiment: Respiration of isolated kidney mitochondria with complex I substrates glutamate+malate after acute IsoLG/IsoLG-PE treatment; type: biochemical
[3] = target: complex II (Mus musculus, UniProt Q8K2B3+Q9CQA3+Q9CXV1+Q9CZB0); experiment: Complex II activity in mouse kidney mitochondrial lysate; type: biochemical; conditions: mitochondrial lysates treated with a bolus of IsoLG
[4] = tested on: Intact mouse kidney mitochondria, complex II respiration; experiment: Respiration of isolated kidney mitochondria with complex II substrate succinate after acute IsoLG/IsoLG-PE treatment; type: biochemical; conditions: acute addition of a low dose (0.5 μM printed elsewhere in the source)
Experimental: FIGS. 1A-1C show acute treatment with IsoLG or IsoLG-PE impairs mitochondrial respiration. (A) Intact mouse kidney mitochondria were incubated (5 min) with ethanol as vehicle (Sham), IsoLG (20 μM) or IsoLG-PE (20 μM) and then diluted with respiration buffer 20-fold prior to addition of Glutamate and Malate, ADP (50 μM) and measurements of oxygen consumption in State III. *P<0.001 vs Sham, **P<0.03 vs IsoLG. (B) Oxygen consumption in the presence of complex I substrates Glutamate+Malate and ADP (State III) and Respiratory Control Ratio (State III/State IV, %) in intact kidney mitochondria treated with vehicle, IsoLG (1.5 μM) or IsoLG-PE (1.5 μM) in the respiration chamber. (C) State III respiration and Respiratory Control Ratio (State III/State IV, %) in presence of complex II substrate Succinate and ADP following addition of vehicle, IsoLG (1.5 μM) or IsoLG-PE (1.5 μM) in the respiration chamber.
Complex I is a key component of mitochondrial oxidative phosphorylation. Inactivation of complex I can lead to reduced ATP production and tissue damage. Addition of IsoLG to cells produces both protein—adducts and IsoLG-phosphatidylethanolamine adducts (IsoLG-PE) which can independently contribute to mitochondrial dysfunction. The present inventors tested whether IsoLG or IsoLG-PE could contribute to mitochondrial dysfunction. […]

[5] = tested on: C57Bl/6J mice, Ang II-induced hypertension; experiment: Blood pressure in angiotensin II model of hypertension (tail-cuff and telemetry); type: in vivo, mouse; conditions: same molar dose of untargeted 2HOBA (0.17 mmol/L) in drinking water
Source text: FIGS. 10A-D show the effect of mito2HOBA on angiotensin II-induced hypertension and accumulation of mitochondrial isoLGs protein adducts. (A) Blood pressure tail-cuff measurements in male Sham or angiotensin II-infused mice supplied with mito2HOBA in drinking water (0.1 g/L) or equimolar amount of untargeted analog 2HOBA (0.17 mmol/L). (B) Telemetry studies of blood pressure in angiotensin II-infused mice supplied with mito2HOBA or plain water as a vehicle. (C) Representative LC/MS/MS chromatograms of isoLG-Lysyl-Lactam adduct; (D) isoLG-Lys-Lactam levels in kidney mitochondria isolated from Sham or angiotensin II-infused mice supplied with mito2HOBA. Results are mean±SEM. *P<0.01 vs Sham, **P<0.01 vs Ang II (n=8).
Hypertension was induced by angiotensin II ([…]) as described previously. To test the therapeutic potential of scavenging of mitochondrial isoLGs, wild-type C57B1/6J male and female mice (Jackson Labs) received saline or angiotensin II minipump placement, and provided with the plain water (vehicle) or mito2HOBA in the drinking water (0.1 g/liter). Blood pressure was monitored by the telemetry and tail-cuff measurements as previously described. The Vanderbilt Institutional Animal Care and Use Committee approved the procedures (Protocol M1700207). Simple randomization was used to select animals for sham, angiotensin II or mito2HOBA groups for equal chance of being allocated to treatment groups.
To test a functional role of mitochondrial isoLGs in hypertension, we used an Ang II model of hypertension, and monitored blood pressure by tail-cuff (FIG. 10A) and telemetry (FIG. 10B). […] Infusion of wild-type C57B1/6J mice with Ang II (0.7 mg/kg/day) increased systolic blood pressure to 162 mm Hg.

[6] = tested on: human aortic endothelial cells (HAEC); experiment: Mitochondrial superoxide in human aortic endothelial cells stimulated with angiotensin II plus TNFα (mitoSOX HPLC); type: cell-based
Experimental: FIGS. 9A and B show the effect of mito2HOBA on mitochondrial superoxide and cardiolipin oxidation in human aortic endothelial cells induced by angiotensin II plus TNFα. (A) Mitochondrial superoxide was measured by HPLC analysis of mitoSOX-superoxide specific product, mito-2-hydroxyethidium (Mito-2OH-Et+). […] (B) Cardiolipin oxidation induced by Angiotensin II+TNFα measured my LC/MS. […] Data are mean±SEM. *P<0.01 vs Control, **P<0.01 vs Angiotensin II+TNFα (n=4).
Human aortic endothelial cells (HAEC) were purchased from Lonza (Chicago, IL) and cultured in EGM-2 medium supplemented with 2% FBS but without antibiotics. On the day before the study, the FBS concentration was reduced to 1%.
We tested if mito2HOBA reduces mitochondrial oxidative stress in human aortic endothelial cells (HAEC) stimulated with angiotensin II plus TNFα for 4-hours (FIG. 9). Indeed, supplementation of HAEC with mito2HOBA (50 nM) reduced mitochondrial superoxide production stimulated by TNF[…] and Ang II as measured by accumulation of specific superoxide-MitoSOX product, 2-OH-Mito-Ethidium.

[7] = target: complex II (Mus musculus, UniProt Q8K2B3); experiment: Glutamate-driven respiration of kidney mitochondria with Complex II inhibitor malonate; conditions: malonate 5 mM, Glutamate+Malate
complex II (Mus musculus, UniProt Q8K2B3), sequence (Q8K2B3 43-664): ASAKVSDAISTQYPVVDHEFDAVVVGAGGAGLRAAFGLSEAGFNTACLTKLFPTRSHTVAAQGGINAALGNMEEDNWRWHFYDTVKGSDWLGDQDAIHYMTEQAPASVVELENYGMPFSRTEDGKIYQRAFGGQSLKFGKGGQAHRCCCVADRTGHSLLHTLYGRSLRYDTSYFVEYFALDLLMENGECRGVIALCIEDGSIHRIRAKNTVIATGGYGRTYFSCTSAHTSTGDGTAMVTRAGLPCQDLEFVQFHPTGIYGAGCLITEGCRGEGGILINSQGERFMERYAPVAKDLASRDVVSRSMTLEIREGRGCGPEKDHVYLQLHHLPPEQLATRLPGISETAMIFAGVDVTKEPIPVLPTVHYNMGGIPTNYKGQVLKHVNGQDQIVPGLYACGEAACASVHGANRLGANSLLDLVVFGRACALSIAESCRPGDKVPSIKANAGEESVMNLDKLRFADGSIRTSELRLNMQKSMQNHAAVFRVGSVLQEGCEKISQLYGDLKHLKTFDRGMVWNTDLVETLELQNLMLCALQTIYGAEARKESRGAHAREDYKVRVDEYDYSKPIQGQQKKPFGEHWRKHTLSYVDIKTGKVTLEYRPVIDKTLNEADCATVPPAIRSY
complex II (Mus musculus, UniProt Q8K2B3), sequence (Q9CQA3 31-282 partner): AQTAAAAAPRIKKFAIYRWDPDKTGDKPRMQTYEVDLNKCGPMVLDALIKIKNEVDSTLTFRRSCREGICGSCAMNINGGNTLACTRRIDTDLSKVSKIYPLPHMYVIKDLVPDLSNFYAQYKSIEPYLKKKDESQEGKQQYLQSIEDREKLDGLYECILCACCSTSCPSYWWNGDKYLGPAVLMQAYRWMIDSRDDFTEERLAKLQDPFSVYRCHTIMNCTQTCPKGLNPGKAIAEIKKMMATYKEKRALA
complex II (Mus musculus, UniProt Q8K2B3), sequence (Q9CZB0 30-169 partner): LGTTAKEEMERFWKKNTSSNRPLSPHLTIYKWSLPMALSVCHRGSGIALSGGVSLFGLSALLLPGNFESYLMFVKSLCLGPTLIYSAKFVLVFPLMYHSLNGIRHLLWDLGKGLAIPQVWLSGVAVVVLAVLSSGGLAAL
complex II (Mus musculus, UniProt Q8K2B3), sequence (Q9CXV1 57-159 partner): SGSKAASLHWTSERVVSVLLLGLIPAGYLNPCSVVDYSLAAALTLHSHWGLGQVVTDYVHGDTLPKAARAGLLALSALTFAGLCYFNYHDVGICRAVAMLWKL
Experimental: To study the mitochondrial function, the combination of glutamate and malate (GM) or succinate was used as substrates. Since glutamate can be converted via transamination to α-ketoglutarate and further to succinate, the present inventors used complex II inhibitor malonate to define specific complex I respiration. The basal respiration (1) was measured in mitochondria supplemented with respiratory substrates. Then ADP was added to measure the coupled respiration (2). The proton leak (3) was determined after addition of complex V inhibitor oligomycin A. The uncoupled respiration (4) was measured after supplementation with CCCP. Finally, antimycin A plus rotenone were added to assess non-mitochondrial respiration (5) as described previously [32].
Mitochondria were isolated from 12-14-week-old male C57BL6/6J mouse kidneys. For respiration studies, electrons were entered at either complex I (glutamate+malate as substrate) or complex II (succinate as substrate). […] Since kidney mitochondria are much less studied than mitochondria from other organs, the present inventors used the specific inhibitor of Complex II malonate (5 mM) to evaluate the alternative pathways for glutamate oxidation. The Complex II mediated respiration was defined as malonate-inhibited oxygen consumption while Complex I specific respiration was defined as malonate resistant oxygen consumption. […]

complex II (Mus musculus, UniProt Q8K2B3+Q9CQA3+Q9CXV1+Q9CZB0), sequence (Q8K2B3 43-664): as the sequence (Q8K2B3 43-664) above
complex II (Mus musculus, UniProt Q8K2B3+Q9CQA3+Q9CXV1+Q9CZB0), sequence (Q9CQA3 31-282): as the sequence (Q9CQA3 31-282 partner) above
complex II (Mus musculus, UniProt Q8K2B3+Q9CQA3+Q9CXV1+Q9CZB0), sequence (Q9CZB0 30-169): as the sequence (Q9CZB0 30-169 partner) above
complex II (Mus musculus, UniProt Q8K2B3+Q9CQA3+Q9CXV1+Q9CZB0), sequence (Q9CXV1 57-159): as the sequence (Q9CXV1 57-159 partner) above

15-E2-isolevuglandin [15-E2-IsoLG] was tested, and the “complex I inactivation” value [1] was 74%, the “inhibition of state 3 respiration” value ([2]; 20 μM, five-minute treatment of isolated mitochondria, complex I substrates glutamate+malate) was 74% and the “complex I-mediated respiration” value ([2]; acute addition of a low dose (0.5 μM printed elsewhere in the source), intact mitochondria) was “significantly attenuated”. For the same compound, the “complex II activity inhibited” value [3] was 21% and the “complex II respiration” value [4] was “much less affected”.

For `NCc1ccccc1O` [2HOBA, 2-hydroxybenzylamine], the “Ang II-induced hypertension” value [5] was “did not attenuate”, the mitochondrial superoxide production ([6]; 50 nM, angiotensin II plus TNFα for 4-hours) was “did not affect” and the mitochondrial superoxide overproduction ([6]; cultured HAEC, concentration not stated (discussion)) was “partially attenuates”.

With `NCc1ccc(O)cc1` [4HOBA, 4-hydroxybenzylamine] the “mitochondrial superoxide (mitochondrial oxidative stress)” value ([6]; 4HOBA high dose 10 μM, angiotensin II plus TNFα) was “did not protect”.

With `O=C(O)CC(=O)O` [Malonate, malonate] the “inhibition of glutamate-driven respiration” value [7] was 58%.

Reference: patent US12564580B2, “Mitochondria-targeted isoketal/isolevuglandin scavengers and uses thereof” (Vanderbilt University, priority 2020, dated 2026)
